Drawing on patent publication US10487068B2, “Pyridazine derivatives as RORc modulators” (Genentech, Inc., priority 2015, dated 2019), this text covers IC50 for 23 molecules.

Each structure is given as a SMILES string. pIC50: −log10 of the molar value.

This assay deals with T1, RORc ligand binding domain (Homo sapiens, UniProt P51449).
T1 sequence (P51449 269-508 limits assumed): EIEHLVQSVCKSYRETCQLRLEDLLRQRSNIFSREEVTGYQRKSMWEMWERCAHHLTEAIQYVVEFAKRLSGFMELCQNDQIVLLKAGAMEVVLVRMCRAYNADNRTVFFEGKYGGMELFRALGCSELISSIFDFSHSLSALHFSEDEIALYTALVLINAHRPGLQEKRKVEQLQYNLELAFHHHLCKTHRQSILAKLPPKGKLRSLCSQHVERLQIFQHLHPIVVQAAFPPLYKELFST
The assay can be described thus: In Vitro RORc Ligand Binding Assay. The conditions noted are these: RORc IC50, radioligand 25-[3H]hydroxycholesterol 6 nM; 0.6 ug/mL RORc receptor; 3 h at 25° C.

One may read the pIC50 as the negative decadic logarithm of the IC50, by convention in mol/L. A lower pIC50 goes with a large IC50. For `CC1(C)[C@H]2CC[C@]1(c1cccc(C(=O)NCCO)n1)c1nnc(-c3c(F)cccc3F)cc12` [Example 56, 6-((5R,8S)-3-(2,6-difluorophenyl)-9,9-dimethyl-5,6,7,8-tetrahydro-5,8-methanocinnolin-8-yl)-N-(2-hydroxyethyl)picolinamide], the pIC50 was 7.45.
Regarding `CC1(C)[C@H]2CC[C@]1(c1cncc(-c3nc([C@@H](O)C(F)(F)F)n[nH]3)n1)c1nnc(-c3c(F)cccc3F)cc12` [Example 308, (R)-1-(5-(6-((5R,8S)-3-(2,6-difluorophenyl)-9,9-dimethyl-5,6,7,8-tetrahydro-5,8-methanocinnolin-8-yl)pyrazin-2-yl)-1H-1,2,4-triazol-3-yl)-2,2,2-trifluoroethanol], the pIC50 was 6.98.
The figure for `CC1(C)[C@H]2CC[C@]1(c1ccnc(-n3cnc(CC(N)=O)n3)n1)c1nnc(-c3c(F)cccc3F)cc12` [Example 323] is 7.95.
`CC[C@H](O)c1coc(-c2cncc([C@@]34CC[C@@H](c5cc(-c6c(F)cccc6F)nnc53)C4(C)C)n2)n1` [Example 383, (S)-1-(2-(6-((5R,8S)-3-(2,6-difluorophenyl)-9,9-dimethyl-5,6,7,8-tetrahydro-5,8-methanocinnolin-8-yl)pyrazin-2-yl)oxazol-4-yl)propan-1-ol] showed a pIC50 of 8.09.
On to `CC1(C)[C@H]2CC[C@]1(c1cccc(C(=O)NC(CO)CO)n1)c1nnc(-c3c(F)cccc3F)cc12` [Example 130, 6-((5R,8S)-3-(2,6-difluorophenyl)-9,9-dimethyl-5,6,7,8-tetrahydro-5,8-methanocinnolin-8-yl)-N-(1,3-dihydroxypropan-2-yl)picolinamide], for which the pIC50 was 7.26.
`CC(C)(O)c1cncc([C@@]23CC[C@@H](c4cc(-c5c(F)cccc5F)nnc42)C3(C)C)n1` [Example 128, 2-(6-((5R,8S)-3-(2,6-difluorophenyl)-9,9-dimethyl-5,6,7,8-tetrahydro-5,8-methanocinnolin-8-yl)pyraizn-2-yl)propan-2-ol] had a pIC50 of 7.67.
The figure for `CC1(C)[C@H]2CC[C@]1(c1cncc(-c3ccc(OCC(N)=O)nc3)n1)c1nnc(-c3c(F)cccc3F)cc12` [Example 402, 2-((5-(6-((5R,8S)-3-(2,6-difluorophenyl)-9,9-dimethyl-5,6,7,8-tetrahydro-5,8-methanocinnolin-8-yl)pyrazin-2-yl)pyridin-2-yl)oxy)acetamide] is 8.09; for `CC1(C)[C@H]2CC[C@]1(c1cncc(-c3cn[nH]n3)n1)c1nnc(-c3c(F)cccc3F)cc12` [Example 399] it is 8.19; for `CC1(C)[C@H]2CC[C@]1(c1nccc(C#N)n1)c1nnc(-c3c(F)cccc3F)cc12` [Example 43, 2-((5R,8R)-3-(2,6-difluorophenyl)-9,9-dimethyl-5,6,7,8-tetrahydro-5,8-methanocinnolin-8-yl)pyrimidine-4-carbonitrile] it is 7.57.
The result for `C[C@@H](CO)NC(=O)c1cncc([C@@]23CC[C@@H](c4cc(-c5c(F)cccc5F)nnc42)C3(C)C)n1` [Example 52, 6-((5R,8S)-3-(2,6-difluorophenyl)-9,9-dimethyl-5,6,7,8-tetrahydro-5,8-methanocinnolin-8-yl)-N-((S)-1-hydroxypropan-2-yl)pyrazine-2-carboxamide] reads 7.42; that for `CC1(C)[C@H]2CC[C@]1(c1cccc(-c3cnc(CO)o3)n1)c1nnc(-c3c(F)cccc3F)cc12` [Example 207, (5-(6-((5R,8S)-3-(2,6-difluorophenyl)-9,9-dimethyl-5,6,7,8-tetrahydro-5,8-methanocinnolin-8-yl)pyridin-2-yl)oxazol-2-yl)methanol], 8.42; that for `CC1(C)[C@@H]2CC[C@@]1(c1nc(C#N)ncc1Cl)c1nnc(-c3c(F)cccc3F)cc12` [Example 245], 7.58.
Turning to `CC1(C)[C@H]2CC[C@]1(c1cncc(C(=O)NCCO)n1)c1nnc(-c3c(F)cccc3F)cc12` [Example 41, 6-((5R,8S)-3-(2,6-difluorophenyl)-9,9-dimethyl-5,6,7,8-tetrahydro-5,8-methanocinnolin-8-yl)-N-(2-hydroxyethyl)pyrazine-2-carboxamide], the pIC50 is 7.59.
With `CC1(C)[C@H]2CC[C@]1(c1cncc(-n3cnc(CO)c3)n1)c1nnc(-c3c(F)cccc3F)cc12` [Example 236], the pIC50 is 8.24.
Consider `CC1(C)[C@H]2CC[C@]1(c1ccnc(-c3ccc(CO)nc3)n1)c1nnc(-c3c(F)cccc3F)cc12` [Example 374], for which the pIC50 was 8.26.
Consider `CC1(C)[C@H]2CC[C@]1(c1cncc(-n3ccnc3)n1)c1nnc(-c3c(F)cccc3F)cc12` [Example 231], for which the pIC50 is 8.20.
The figure for `CC1(C)[C@H]2CC[C@]1(c1cncc(-c3nc([C@](C)(O)C(F)(F)F)co3)n1)c1nnc(-c3c(F)cccc3F)cc12` [Example 428, (S)-2-(2-(6-((5R,8S)-3-(2,6-difluorophenyl)-9,9-dimethyl-5,6,7,8-tetrahydro-5,8-methanocinnolin-8-yl)pyrazin-2-yl)oxazol-4-yl)-1,1,1-trifluoropropan-2-ol] is 7.80; for `CC1(C)[C@@H]2CC[C@@]1(c1cncc(C(=O)NCCO)n1)c1nnc(-c3c(F)cccc3F)cc12` [Example 73, 6-((5S,8R)-3-(2,6-difluorophenyl)-9,9-dimethyl-5,6,7,8-tetrahydro-5,8-methanocinnolin-8-yl)-N-(2-hydroxyethyl)pyrazine-2-carboxamide] it is 7.49.
`CC1(C)[C@H]2CC[C@]1(c1cncc(-c3nc(CC#N)co3)n1)c1nnc(-c3c(F)cccc3F)cc12` [Example 380, 2-(2-(6-((5R,8S)-3-(2,6-difluorophenyl)-9,9-dimethyl-5,6,7,8-tetrahydro-5,8-methanocinnolin-8-yl)pyrazin-2-yl)oxazol-4-yl)acetonitrile] showed a pIC50 of 8.21.
The figure for `CC1(C)[C@H]2CC[C@]1(c1cncc(C(=O)NCc3nnc[nH]3)n1)c1nnc(-c3c(F)cccc3F)cc12` [Example 139, N-((4H-1,2,4-triazol-3-yl)methyl)-6-((5R,8S)-3-(2,6-difluorophenyl)-9,9-dimethyl-5,6,7,8-tetrahydro-5,8-methanocinnolin-8-yl)pyrazine-2-carboxamide] is 7.18.
Molecule `CC1(C)[C@H]2CC[C@]1(c1cc(C(=O)O)ccn1)c1nnc(-c3c(F)cccc3F)cc12` [Example 53] gave a pIC50 of 6.32.
In the case of `CC1(C)[C@H]2CC[C@]1(c1cncc(C(=O)N3CC(CO)C3)n1)c1nnc(-c3c(F)cccc3F)cc12` [Example 31, (6-((5R,8S)-3-(2,6-difluorophenyl)-9,9-dimethyl-5,6,7,8-tetrahydro-5,8-methanocinnolin-8-yl)pyrazin-2-yl)(3-(hydroxymethyl)azetidin-1-yl)methanone], the pIC50 was 7.03.
For `CC1(C)[C@H]2CC[C@]1(c1cncc(-c3ncnn3CCO)n1)c1nnc(-c3c(F)cccc3F)cc12` [Example 145, 2-(5-(6-((5R,8S)-3-(2,6-difluorophenyl)-9,9-dimethyl-5,6,7,8-tetrahydro-5,8-methanocinnolin-8-yl)pyrazin-2-yl)-1H-1,2,4-triazol-1-yl)ethanol], the pIC50 was 7.36.
